Non-standard residues stand in square brackets, D forms with d. No end group written: not given here. *: point of attachment. Acetyl(2-(piperazin-1-yl)) = O=C(CN1CCNCC1)*; PEG20k = methoxypolyethylene glycol 20k; NMeA = CN[C@@H](C)C(=O)O; βAla = NCCC(=O)O
Tests used:
Human FM3 = target: T1, Human FM3 (Homo sapiens, UniProt Q9HB89); experiment: Receptor binding test: inhibition of 125I-NMU8 binding to FM3 membrane fraction; conditions: ratio of IC50 values when the affinity of NMU-8 was 1; 125I-NMU8 135 pM, CHO cell membrane fraction
T1 construct: expressed in transfected cells; host or cells: CHO (dhfr-) cells; membrane fraction
T1 sequence (Q9HB89 1-426): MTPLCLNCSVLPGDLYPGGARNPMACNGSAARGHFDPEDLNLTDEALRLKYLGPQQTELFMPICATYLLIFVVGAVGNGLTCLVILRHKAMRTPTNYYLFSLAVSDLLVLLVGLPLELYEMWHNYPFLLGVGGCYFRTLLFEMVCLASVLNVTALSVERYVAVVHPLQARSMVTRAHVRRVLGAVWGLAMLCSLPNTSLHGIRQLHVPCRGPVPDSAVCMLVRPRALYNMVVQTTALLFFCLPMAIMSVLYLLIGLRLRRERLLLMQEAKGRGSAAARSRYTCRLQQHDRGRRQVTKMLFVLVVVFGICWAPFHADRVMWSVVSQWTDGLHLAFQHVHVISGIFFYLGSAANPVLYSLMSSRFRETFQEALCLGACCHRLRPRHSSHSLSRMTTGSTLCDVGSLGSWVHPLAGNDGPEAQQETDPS

human TGR1 = target: T2, human TGR1 (Homo sapiens, UniProt Q9GZQ4); experiment: Receptor binding test: inhibition of 125I-NMU8 binding to TGR1 membrane fraction; conditions: ratio of IC50 values when the affinity of NMU-8 was 1; 125I-NMU8 135 pM, CHO cell membrane fraction
T2 construct: expressed in transfected cells; host or cells: CHO (dhfr-) cells; membrane fraction
Method: CHO cells expressing Human FM3 (dhfr-) and CHO cells expressing human TGR1 (dhfr-) were cultured in 10% dialyzed FBS-containing MEMα (Invitrogen) medium under conditions of 5% carbon dioxide at 37° C. The adherent cells were detached with 10 mL of 0.1 mM EDTA-containing D-PBS (Invitrogen) and centrifuged for 10 minutes at 1,000 rpm at 4° C., thereby collecting the cells. 15 mL of homogenized buffer (10 mM NaHCO3 (pH 7.4), 5 mM EDTA, protease inhibitor=0.5 mM PMSF, 10 μg/mL Pepstatin A, 20 μg/mL Leupeptin, and 4 μg/mL E-64) was added to the obtained cell pellets, the cellular membrane was disrupted using a polytron homogenizer (Kinematica GmbH), centrifugation was conducted for 10 minutes at 1,000 g at 4° C., and the supernatant was collected. This process was further repeated twice, and ultracentrifugation was conducted for 60 minutes at 30,000 rpm at 4° C. Thereafter, 8 mL of homogenized buffer was added to the pellets and suspended homogeneously to prepare a membrane fraction. The protein concentration of the FM3-expressing CHO cellular membrane fraction was 1.2 mg/mL, and the protein concentration of the TGR1-expressing CHO cellular membrane fraction was 1.1 mg/mL.
The affinity of the NMU-8 derivatives and PEG conjugates shown in Table 2 (Table 2-1 and Table 2-2) with respect to each receptor was evaluated based on the inhibition of ^125I-NMU8 labeled ligand binding to the FM3 membrane fraction or to the TGR1 membrane fraction. Specifically, each of the NMU derivatives and PEG conjugates was dissolved in DMSO so as to prepare 2 μL of each dilution series of the NMU derivatives and PEG conjugates. Then, 100 μL of membrane fraction solutions diluted with a reaction buffer (50 mM HEPES, 1 mM EDTA protease inhibitor (0.5 mM PMSF), 10 μg/mL Pepstatin A, 20 μg/mL Leupeptin, and 4 μg/mL E-64, pH 6.8, 0.1% BSA) was added thereto, followed by further addition of 100 μL of the labeled ligand (final concentration: 135 pM) similarly diluted with the reaction buffer. The resulting product was thoroughly mixed, and then a reaction was carried out at 25° C. for 70 minutes. In accordance with the above-described procedure, the binding amount of the labeled ligand remaining in the filter was measured using a top count (PerkinElmer) by a liquid scintillation method, and the IC50 values were calculated using a Graph Pad Prism (FIG. 1 (FM3 receptor binding), FIG. 2 (TGR1 receptor binding), and Table 2).

[1] = Anorectic activity via peripheral administration; assay type: in vivo

T2 sequence (Q9GZQ4 whole entry): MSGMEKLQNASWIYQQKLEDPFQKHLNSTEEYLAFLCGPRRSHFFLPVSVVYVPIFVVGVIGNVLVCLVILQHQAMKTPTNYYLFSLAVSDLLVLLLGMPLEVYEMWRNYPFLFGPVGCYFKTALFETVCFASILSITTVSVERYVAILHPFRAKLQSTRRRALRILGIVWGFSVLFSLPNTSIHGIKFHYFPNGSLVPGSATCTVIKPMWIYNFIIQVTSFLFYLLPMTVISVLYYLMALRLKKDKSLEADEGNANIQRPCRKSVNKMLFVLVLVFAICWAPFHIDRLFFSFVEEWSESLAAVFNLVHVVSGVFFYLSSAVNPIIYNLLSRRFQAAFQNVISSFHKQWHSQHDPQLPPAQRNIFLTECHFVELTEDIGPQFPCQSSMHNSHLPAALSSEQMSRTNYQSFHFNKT

Substance	FM3 Receptor Binding IC50 ratio (Human FM3)	TGR1 Receptor Binding IC50 ratio (human TGR1)	anorectic activity [1]
2-(piperazin-1-yl)acetyl-Arg3-NMU8 [Compound 10]	0.27	0.66	
NMU-23: Rat NMU consists of 23 amino acid residues, and is named NMU-23 (YKVNEYQGPVAPSGGFFLFRPRN; ends and bridges not checked; UniProt P12760 144-166, looked up)			induces an anorectic activity
NpipAc0,Glu2,Ala6-NMU-8 [Compound 19]	24000	25	
NpipAc0,Glu2,NMeAla6-NMU-8 [Compound 21]	6500	5.5	
NpipAc0,Nal(2)2,NMeAla6-NMU-8 [Compound 22]	99	1.7	
NpipAc0,Phe1,Trp2,Ala6-NMU-8 [Compound 11]	280	0.19	
NpipAc0,Trp2,Ala6-NMU-8 [Compound 20]	900	1.9	
PEG30k-NH-β-Ala0,Arg3-NMU-8 [Compound C]	1.7	2.6	
PEG30k-NH-β-Ala0,Gln3-NMU-8 [Compound B]	1.8	7.3	
PEG30k-NH-β-Ala0,Gln5-NMU-8 [Compound A]	160	9.6	
PEG30k-NH-β-Ala0,Tyr2-NMU-8 [Compound E]	8.1	1.7	
PEG30k-NH-β-Ala0,Val3-NMU-8 [Compound D]	5.3	2.2	
Tyr-Phe-Leu-Phe-Arg-Pro-Arg-Asn-NH2 [NMU-8]			does not induce an anorectic activity
β-Ala0,Arg1-NMU-8 [Compound 7]	0.42	3.7	
β-Ala0,Arg3-NMU-8 [Compound 3]	0.07	0.38	
β-Ala0,Arg(Me)7-NMU-8 [Compound 14]	6.3	3.6	
β-Ala0,Asp8-NMU-8 [Compound 12]	2.4	2.0	
β-Ala0,Cha3-NMU-8 [Compound 6]	0.55	9.9	
β-Ala0,Gln3-NMU-8 [Compound 2]	0.31	3.9	
β-Ala0,Gln5-NMU-8 [Compound 1]	15	3.4	
β-Ala0,Glu2,NMeAla6-NMU-8 [Compound 18]	26000	31	
β-Ala0,NMeArg5-NMU-8 [Compound 13]	0.46	1.1	
β-Ala0,NMeLeu3,NMeArg7-NMU-8 [Compound 15]	8.6	19	
β-Ala0,Pro1-NMU-8 [Compound 8]	0.59	3.8	
β-Ala0,Trp2,NMeAla6-NMU-8 [Compound 17]	92	1.9	
β-Ala0,Val3-NMU-8 [Compound 4]	0.43	0.37	

Second part, led by results:

FM3 Receptor Binding IC50 ratio (Human FM3)	TGR1 Receptor Binding IC50 ratio (human TGR1)	Substance	anorectic activity [1]
>7300		PEG20k-NH-β-Ala0,Glu2,NMeAla6-NMU-8 ({PEG20k-βAla}-YELFR[NMeA]RN-NH2) [Compound R]	
75	170	PEG20k-NH-β-Ala0,NMeLeu3,NMeArg7-NMU-8 [Compound O]	
83	240	PEG20k-NH-β-Ala0,NMeTyr1,NMeLeu3,NMeArg5-NMU-8 [Compound P]	
1600	47	PEG20k-NH-β-Ala0,Trp2,NMeAla6-NMU-8 [Compound Q]	
11000		PEG20k-NPipAc-Phe1, Trp2,Ala6-NMU-8 ({PEG20k-Acetyl(2-(piperazin-1-yl))}-FWLFRARN-NH2) [Compound K]	
>10000		PEG20k-NpipAc-Glu2,Ala6-NMU8 ({PEG20k-Acetyl(2-(piperazin-1-yl))}-YELFRARN-NH2) [Compound S]	
>10000		PEG20k-NpipAc-Glu2,NMeAla6-NMU8 ({PEG20k-Acetyl(2-(piperazin-1-yl))}-YELFR[NMeA]RN-NH2) [Compound U]	
>10000		PEG20k-NpipAc-Trp2,Ala6-NMU8 ({PEG20k-Acetyl(2-(piperazin-1-yl))}-YWLFRARN-NH2) [Compound T]	
1.5	8.5	PEG30k-NH-β-Ala0,Arg1-NMU-8 [Compound G]	
290	63	PEG30k-NH-β-Ala0,Arg(Me) 7-NMU-8 [Compound N]	
150	34	PEG30k-NH-β-Ala0,Asp8-NMU-8 [Compound L]	
1.3	11	PEG30k-NH-β-Ala0,Cha3-NMU-8 [Compound F]	
9.0	29	PEG30k-NH-β-Ala0,NMeArg5-NMU-8 [Compound M]	
9.4	21	PEG30k-NH-β-Ala0,Pro1-NMU-8 [Compound H]	
